Measurements reported in ChEMBL document CHEMBL5338739, “Discovery of Dual Lysine Methyltransferase G9a and EZH2 Inhibitors with In Vivo Efficacy against Malignant Rhabdoid Tumor” (J Med Chem, 2023).
The source made the active and inactive calls. The calls are words filed in the database; no cut-off is given here.

How the values were obtained:
[1] = target: T1, Histone-lysine N-methyltransferase EHMT2 (Homo sapiens, UniProt Q96KQ7); assay: Inhibition of human recombinant EHMT2 G9a using SAM as substrate incubated for 1 hr by microplate luminescence based HMT assay
T1 sequence (Q96KQ7 whole entry): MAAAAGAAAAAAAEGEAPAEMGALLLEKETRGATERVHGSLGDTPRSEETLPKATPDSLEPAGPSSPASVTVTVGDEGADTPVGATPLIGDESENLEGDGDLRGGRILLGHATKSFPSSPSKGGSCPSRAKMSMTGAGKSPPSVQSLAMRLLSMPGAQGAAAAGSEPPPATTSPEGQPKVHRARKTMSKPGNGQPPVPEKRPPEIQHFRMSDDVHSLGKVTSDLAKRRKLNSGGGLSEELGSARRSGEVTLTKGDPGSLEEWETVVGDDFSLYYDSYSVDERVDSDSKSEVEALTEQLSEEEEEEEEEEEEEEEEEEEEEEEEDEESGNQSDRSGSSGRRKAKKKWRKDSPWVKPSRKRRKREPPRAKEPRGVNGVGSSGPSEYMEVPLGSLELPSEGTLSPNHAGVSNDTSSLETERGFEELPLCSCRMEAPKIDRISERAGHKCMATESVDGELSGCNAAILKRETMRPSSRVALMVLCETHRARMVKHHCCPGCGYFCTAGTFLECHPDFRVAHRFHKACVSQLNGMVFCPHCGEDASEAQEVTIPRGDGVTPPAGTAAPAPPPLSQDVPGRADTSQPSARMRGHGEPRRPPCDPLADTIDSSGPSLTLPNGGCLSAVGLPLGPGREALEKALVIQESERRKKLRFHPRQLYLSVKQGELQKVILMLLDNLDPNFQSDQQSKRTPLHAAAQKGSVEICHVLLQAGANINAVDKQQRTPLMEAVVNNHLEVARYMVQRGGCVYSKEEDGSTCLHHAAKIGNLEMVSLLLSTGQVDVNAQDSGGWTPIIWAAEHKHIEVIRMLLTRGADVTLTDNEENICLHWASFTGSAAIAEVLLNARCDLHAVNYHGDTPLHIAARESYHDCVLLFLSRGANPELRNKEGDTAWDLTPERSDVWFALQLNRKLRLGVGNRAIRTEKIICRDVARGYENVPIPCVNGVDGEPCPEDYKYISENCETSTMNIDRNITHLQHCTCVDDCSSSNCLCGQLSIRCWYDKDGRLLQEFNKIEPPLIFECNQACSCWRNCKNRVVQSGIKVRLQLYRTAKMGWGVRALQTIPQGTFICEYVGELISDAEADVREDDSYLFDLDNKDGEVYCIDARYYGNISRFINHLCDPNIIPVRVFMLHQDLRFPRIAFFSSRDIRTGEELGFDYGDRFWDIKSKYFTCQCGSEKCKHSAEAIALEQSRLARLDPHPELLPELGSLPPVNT

[2] = target: Histone-lysine N-methyltransferase SETD2 (Homo sapiens) (UniProt Q9BYW2); assay: Inhibition of SETD2 (unknown origin) using SAM as substrate at 10 uM by time-resolved fluorescence assay relative to control
Histone-lysine N-methyltransferase SETD2 (Homo sapiens), sequence (Q9BYW2 whole entry): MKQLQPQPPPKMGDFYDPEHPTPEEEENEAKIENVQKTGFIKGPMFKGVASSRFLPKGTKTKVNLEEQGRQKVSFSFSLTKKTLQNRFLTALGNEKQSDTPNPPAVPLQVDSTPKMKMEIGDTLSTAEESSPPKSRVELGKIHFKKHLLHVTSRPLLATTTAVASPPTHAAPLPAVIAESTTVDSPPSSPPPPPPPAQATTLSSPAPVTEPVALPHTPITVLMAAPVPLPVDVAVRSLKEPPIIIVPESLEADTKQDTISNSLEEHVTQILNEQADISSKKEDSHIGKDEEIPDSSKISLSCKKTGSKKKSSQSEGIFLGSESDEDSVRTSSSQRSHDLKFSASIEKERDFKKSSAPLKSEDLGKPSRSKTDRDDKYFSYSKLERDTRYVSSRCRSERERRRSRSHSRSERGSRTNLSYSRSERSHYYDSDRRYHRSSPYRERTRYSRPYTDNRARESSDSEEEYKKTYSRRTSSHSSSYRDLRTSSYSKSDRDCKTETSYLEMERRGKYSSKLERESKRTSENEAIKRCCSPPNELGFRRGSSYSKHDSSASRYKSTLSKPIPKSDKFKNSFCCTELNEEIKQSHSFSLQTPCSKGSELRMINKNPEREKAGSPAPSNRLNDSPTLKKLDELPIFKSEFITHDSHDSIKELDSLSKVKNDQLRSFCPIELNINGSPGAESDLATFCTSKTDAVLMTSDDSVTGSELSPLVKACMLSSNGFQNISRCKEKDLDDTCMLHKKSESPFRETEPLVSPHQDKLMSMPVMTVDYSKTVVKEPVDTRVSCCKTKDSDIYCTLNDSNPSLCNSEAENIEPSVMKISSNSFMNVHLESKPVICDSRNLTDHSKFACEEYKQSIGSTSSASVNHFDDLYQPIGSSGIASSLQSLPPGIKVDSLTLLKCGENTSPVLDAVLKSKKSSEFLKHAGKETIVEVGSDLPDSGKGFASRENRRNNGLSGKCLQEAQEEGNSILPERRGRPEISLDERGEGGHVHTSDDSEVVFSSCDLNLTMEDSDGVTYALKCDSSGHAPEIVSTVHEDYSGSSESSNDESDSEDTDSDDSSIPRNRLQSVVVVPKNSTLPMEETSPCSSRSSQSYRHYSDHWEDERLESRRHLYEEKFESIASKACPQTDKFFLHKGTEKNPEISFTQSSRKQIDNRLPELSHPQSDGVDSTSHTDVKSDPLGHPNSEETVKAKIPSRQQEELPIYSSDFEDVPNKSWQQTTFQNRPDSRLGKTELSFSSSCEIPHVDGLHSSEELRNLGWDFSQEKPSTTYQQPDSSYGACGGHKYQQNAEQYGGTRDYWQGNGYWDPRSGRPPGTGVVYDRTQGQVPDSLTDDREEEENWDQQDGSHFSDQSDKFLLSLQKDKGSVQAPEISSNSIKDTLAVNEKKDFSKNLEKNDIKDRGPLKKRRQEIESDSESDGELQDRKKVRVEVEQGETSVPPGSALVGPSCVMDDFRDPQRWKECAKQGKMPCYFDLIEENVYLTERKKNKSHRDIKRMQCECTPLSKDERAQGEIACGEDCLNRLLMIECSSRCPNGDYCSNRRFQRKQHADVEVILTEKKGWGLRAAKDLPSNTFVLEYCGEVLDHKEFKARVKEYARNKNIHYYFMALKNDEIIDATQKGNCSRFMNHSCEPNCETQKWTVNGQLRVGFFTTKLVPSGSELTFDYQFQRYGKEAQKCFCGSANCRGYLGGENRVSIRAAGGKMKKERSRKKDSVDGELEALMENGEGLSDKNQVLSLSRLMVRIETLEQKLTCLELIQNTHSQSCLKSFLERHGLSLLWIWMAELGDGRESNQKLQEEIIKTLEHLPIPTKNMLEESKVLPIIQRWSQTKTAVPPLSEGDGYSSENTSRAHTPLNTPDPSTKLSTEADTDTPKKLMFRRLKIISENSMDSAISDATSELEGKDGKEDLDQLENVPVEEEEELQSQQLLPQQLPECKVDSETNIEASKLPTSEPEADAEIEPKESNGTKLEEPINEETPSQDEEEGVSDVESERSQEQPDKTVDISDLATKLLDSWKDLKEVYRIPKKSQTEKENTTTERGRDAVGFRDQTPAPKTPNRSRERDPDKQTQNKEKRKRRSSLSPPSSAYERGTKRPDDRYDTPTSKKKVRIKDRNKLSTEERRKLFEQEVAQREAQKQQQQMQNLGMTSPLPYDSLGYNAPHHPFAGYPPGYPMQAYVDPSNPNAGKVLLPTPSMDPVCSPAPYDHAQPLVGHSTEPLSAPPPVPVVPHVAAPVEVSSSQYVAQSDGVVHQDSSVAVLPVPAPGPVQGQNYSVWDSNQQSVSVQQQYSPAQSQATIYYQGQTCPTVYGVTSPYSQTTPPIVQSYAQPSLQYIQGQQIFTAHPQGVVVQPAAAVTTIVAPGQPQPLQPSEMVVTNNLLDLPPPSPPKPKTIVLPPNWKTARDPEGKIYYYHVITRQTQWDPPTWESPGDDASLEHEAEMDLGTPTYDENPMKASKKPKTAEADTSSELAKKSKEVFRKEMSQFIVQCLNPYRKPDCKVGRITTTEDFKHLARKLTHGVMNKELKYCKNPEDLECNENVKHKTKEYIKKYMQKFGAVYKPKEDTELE

[3] = target: T2, Histone-lysine N-methyltransferase EHMT2 (Homo sapiens) (UniProt Q96KQ7); assay: Inhibition of human recombinant EHMT2 G9a using SAM as substrate at 10 uM by time-resolved fluorescence assay relative to control
T2 sequence (whole entry): T1 sequence (Q96KQ7 whole entry)

[4] = target: T3, Histone-lysine N-methyltransferase EZH1 (Homo sapiens) (UniProt Q92800); assay: Inhibition of human EZH1 using SAM as substrate at 10 uM by time-resolved fluorescence assay relative to control
T3 sequence (whole entry): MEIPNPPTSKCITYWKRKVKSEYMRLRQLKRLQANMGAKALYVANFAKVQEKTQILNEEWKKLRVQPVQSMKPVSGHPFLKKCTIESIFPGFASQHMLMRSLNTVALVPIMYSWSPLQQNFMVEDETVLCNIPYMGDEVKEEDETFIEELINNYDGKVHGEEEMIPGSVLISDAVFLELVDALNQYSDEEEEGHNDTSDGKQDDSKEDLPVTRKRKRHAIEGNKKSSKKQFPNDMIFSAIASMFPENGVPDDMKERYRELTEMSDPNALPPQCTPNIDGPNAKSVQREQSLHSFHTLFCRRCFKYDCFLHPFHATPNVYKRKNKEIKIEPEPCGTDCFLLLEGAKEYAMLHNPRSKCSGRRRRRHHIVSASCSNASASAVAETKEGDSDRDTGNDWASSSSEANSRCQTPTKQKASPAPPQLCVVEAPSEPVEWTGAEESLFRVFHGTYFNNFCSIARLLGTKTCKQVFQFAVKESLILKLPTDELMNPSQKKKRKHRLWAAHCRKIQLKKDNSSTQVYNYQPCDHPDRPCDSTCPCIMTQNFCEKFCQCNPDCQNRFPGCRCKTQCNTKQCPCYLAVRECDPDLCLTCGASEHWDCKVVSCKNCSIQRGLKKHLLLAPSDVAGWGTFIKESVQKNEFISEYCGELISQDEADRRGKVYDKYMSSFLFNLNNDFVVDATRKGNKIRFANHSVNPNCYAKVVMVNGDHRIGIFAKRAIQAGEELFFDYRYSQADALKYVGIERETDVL

[5] = Cmax in Sprague-Dawley rat at 30 mg/kg, po administered for 24 hrs by HPLC analysis; format: ADME, organism-based; set-up: time 24 hrs, dose 30 mg/kg, route po; conditions: in vivo
[6] = Half life in Sprague-Dawley rat at 30 mg/kg, po administered for 24 hrs by HPLC analysis; format: ADME, organism-based; conditions: in vivo
[7] = Oral bioavailability in Sprague-Dawley rat at 30 mg/kg administered for 24 hrs by HPLC analysis; format: ADME, organism-based; conditions: in vivo
[8] = Cytotoxicity against human L02 cells assessed as reduction in cell viability incubated for 72 hrs by MTT assay; format: toxicity, cell-based
[9] = target: T2, Histone-lysine N-methyltransferase EHMT2 (Homo sapiens); assay: Binding affinity to recombinant EHMT2 G9a in human RD cells assessed as increase in protein thermal stability at 5 uM incubated for 4 hrs by CETSA based Western blot analysis; format: cell-based
[10] = system: RD; assay: Antitumor activity against human RD cells xenografted in BALB/c nude mouse assessed as suppression of tumor growth administered intraperitoneally for 5 consecutive days followed by 2 rest days for 3 weeks; conditions: dose 10-20 mg/kg, route ip
[11] = system: RD; assay: Antitumor activity against human RD cells xenografted in BALB/c nude mouse assessed as tumor growth inhibition at 10 to 20 mg/kg, ip administered for 5 consecutive days followed by 2 rest days for 3 weeks; format: functional; conditions: dose 10-20 mg/kg
[12] = system: RD; assay: Antitumor activity against human RD-EV cells xenografted in BALB/c nude mouse assessed as tumor growth inhibition at 20 mg/kg, ip administered for 15 days; format: functional; conditions: 360 h, time 15 day, read-out: TGI

**Q.** Which results are given for `COc1cc2c(NCc3c(C)cc(C)[nH]c3=O)nc(N3CCC(F)(F)CC3)nc2cc1OCCCN1CCCC1`?
**A.** IC50 [1]: 2.9 nM; inhibition [2]: -5.18%; inhibition [3]: 99.1%; inhibition [4]: 89.2%; Cmax [5]: 3180 ng/mL; half-life [6]: 4.02 h; bioavailability [7]: 92%; CC50 at 72 h [8]: > 100000 nM; Activity [9]: Active; Activity [10]: Dose-Dependent Effect; TGI [11]: 86.6%; inhibition in vivo at 20 mg/kg [12]: 55.4%
